The results in this text go back to patent US10189842B2 (Agency for Science, Technology and Research, priority 2013, dated 2019).

Molecules are shown by their SMILES.

This assay deals with HEK293-STF3A cells. The assay can be described thus: STF3A assay (luciferase reporter). Format: cell-based, Human. As to conditions: Homo sapiens, 24 h, 1 day of treatment. The procedure, abridged:
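HEK293 cells carrying the STF reporter and expressing Wnt3A, seeded 2×10^4 per well overnight, then treated 1 day with compound at final 50 μM to 1.5 nM. Luciferase activity read by luminescence after Steady-Glo reagent, 10 min at room temperature.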
(Reporter assays use an easily measured gene product as a stand-in for the process of interest.)
Broadly, the IC50 is the concentration at which inhibition is half-maximal. A lower IC50 goes with inhibition by little substance. Compound `Cc1cc2n(n1)CCCN2C(=O)CCC(=O)Nc1ccc(-c2cncc(F)c2)nc1` [Compound 109, N-(5′-fluoro-[2,3′-bipyridin]-5-yl)-4-(2-methyl-6,7-dihydropyrazolo[1,5-a]pyrimidin-4(5H)-yl)-4-oxobutanamide] had an IC50 of less than 100 nM.
Compound `Cc1cc2n(n1)CCCN2C(=O)CCC(=O)Nc1ccc(C2CCN(C)CC2)cc1` [Compound 82, 4-(2-methyl-6,7-dihydropyrazolo[1,5-a]pyrimidin-4(5H)-yl)-N-(4-(1-methylpiperidin-4-yl)phenyl)-4-oxobutanamide] yielded an IC50 greater than 10000 nM.
To `Cc1ccc(-c2ccc(NC(=O)CCC(=O)N3CCCn4nc(C)cc43)cn2)cn1` [Compound 113, 4-(2-methyl-6,7-dihydropyrazolo[1,5-a]pyrimidin-4(5H)-yl)-N-(6′-methyl-[2,3′-bipyridin]-5-yl)-4-oxobutanamide] belongs less than 100 nM.
To `Cc1cc2n(n1)CCCN2C(=O)CCC(=O)Nc1cc(-c2cccc(Cl)c2)on1` [Compound 23, N-[5-(3-chlorophenyl)-1,2-oxazol-3-yl]-4-{2-methyl-5H,6H,7H-pyrazolo[1,5-a]pyrimidin-4-yl}-4-oxobutanamide] belongs less than 1000 nM; to `Cc1cc2n(n1)CCCN2C(=O)CCC(=O)Nc1cc(-c2cncc(Cl)c2)no1` [Compound 18, N-[3-(5-chloropyridin-3-yl)-1,2-oxazol-5-yl]-4-{2-methyl-5H,6H,7H-pyrazolo[1,5-a]pyrimidin-4-yl}-4-oxobutanamide], less than 5000 nM.
Under `Cc1cccc(-c2cnc(NC(=O)CCC(=O)N3CCCn4nc(C)cc43)cn2)c1` [Compound 126, 4-(2-methyl-6,7-dihydropyrazolo[1,5-a]pyrimidin-4(5H)-yl)-4-oxo-N-(5-(m-tolyl)pyrazin-2-yl)butanamide] stands less than 100 nM.
As to `Cc1cc2n(n1)CCCN2C(=O)CCC(=O)Nc1ccc(-c2cccc(N)c2)cc1` [Compound 70, N-(3′-amino-[1,1′-biphenyl]-4-yl)-4-(2-methyl-6,7-dihydropyrazolo[1,5-a]pyrimidin-4(5H)-yl)-4-oxobutanamide], the IC50 is less than 100 nM.
To `Cc1cccc(-c2ccc(NC(=O)CCC(=O)N3CCCn4nc(C)cc43)nn2)c1` [Compound 99, 4-(2-methyl-6,7-dihydropyrazolo[1,5-a]pyrimidin-4(5H)-yl)-4-oxo-N-(6-(m-tolyl)pyridazin-3-yl)butanamide] belongs less than 100 nM; to `Cc1cc2n(n1)CCCN2C(=O)CCC(=O)Nc1ccc(C(C)(C)C)cc1` [Compound 30, N-(4-(tert-butyl)phenyl)-4-(2-methyl-6,7-dihydropyrazolo[1,5-a]pyrimidin-4(5H)-yl)-4-oxobutanamide], greater than 10000 nM.
In turn, `Cc1cc2n(n1)CCCN2C(=O)CCC(=O)Nc1cc(-c2ccc(N)cc2)no1` [Compound 15, N-[3-(4-aminophenyl)-1,2-oxazol-5-yl]-4-{2-methyl-5H,6H,7H-pyrazolo[1,5-a]pyrimidin-4-yl}-4-oxobutanamide] yielded a half-inhibitory concentration (IC50) greater than 10000 nM.
To `Cc1cc2n(n1)CC(C)CN2C(=O)CCC(=O)Nc1ccc(-c2cccnc2)nc1` (stereo not drawn) [Compound 140, N-(2,3′-bipyridin-5-yl)-4-(2,6-dimethyl-6,7-dihydropyrazolo[1,5-a]pyrimidin-4(5H)-yl)-4-oxobutanamide] belongs less than 100 nM.
To `Cc1cc2n(n1)CCCN2C(=O)CCC(=O)Nc1cc(C)c(-c2ccccc2)cn1` [Compound 92, N-(4-methyl-5-phenylpyridin-2-yl)-4-(2-methyl-6,7-dihydropyrazolo[1,5-a]pyrimidin-4(5H)-yl)-4-oxobutanamide] belongs less than 1000 nM.
Under `Cc1cccc(-c2ccc(NC(=O)CCC(=O)N3CCCn4nc(C)cc43)nc2)n1` [Compound 96, 4-(2-methyl-6,7-dihydropyrazolo[1,5-a]pyrimidin-4(5H)-yl)-N-(6-methyl-[2,3′-bipyridin]-6′-yl)-4-oxobutanamide] stands less than 100 nM; under `Cc1cc2n(n1)CCCN2C(=O)CCC(=O)Nc1ccc(-c2cc(F)ccn2)cn1` [Compound 95, N-(4-fluoro-2,3′-bipyridin-6′-yl)-4-(2-methyl-6,7-dihydropyrazolo[1,5-a]pyrimidin-4(5H)-yl)-4-oxobutanamide], less than 100 nM; under `CCNC(=O)N1CCN(c2ccc(NC(=O)CCC(=O)N3CCCn4nc(C)cc43)nc2)CC1` [Compound 79, N-ethyl-4-(6-(4-(2-methyl-6,7-dihydropyrazolo[1,5-a]pyrimidin-4(5H)-yl)-4-oxobutanamido)pyridin-3-yl)piperazine-1-carboxamide], less than 5000 nM.
Take `Cc1cc2n(n1)CC(C)CN2C(=O)CCC(=O)Nc1ccc(-c2cncc(F)c2)cn1` (stereo not drawn) [Compound 163, 4-(2,6-dimethyl-6,7-dihydropyrazolo[1,5-a]pyrimidin-4(5H)-yl)-N-(5′-fluoro-[3,3′-bipyridin]-6-yl)-4-oxobutanamide]: the IC50 was less than 100 nM.
To `Cc1cc2n(n1)CCCN2C(=O)CCC(=O)Nc1ccc(-c2cccc(F)c2)cc1` [Compound 65, N-(3′-fluoro-[1,1′-biphenyl]-4-yl)-4-(2-methyl-6,7-dihydropyrazolo[1,5-a]pyrimidin-4(5H)-yl)-4-oxobutanamide] belongs less than 100 nM; to `Cc1cc2n(n1)CCCN2C(=O)C(C)CC(=O)Nc1cc(-c2cccc(Cl)c2)no1` (stereo not drawn) [Compound 132, N-(3-(3-chlorophenyl)isoxazol-5-yl)-3-methyl-4-(2-methyl-6,7-dihydropyrazolo[1,5-a]pyrimidin-4(5H)-yl)-4-oxobutanamide], greater than 10000 nM; to `CC(=O)Nc1cccc(-c2ccc(NC(=O)CCC(=O)N3CCCn4nc(C)cc43)cc2)c1` [Compound 74, N-(3′-acetamido-[1,1′-biphenyl]-4-yl)-4-(2-methyl-6,7-dihydropyrazolo[1,5-a]pyrimidin-4(5H)-yl)-4-oxobutanamide], less than 5000 nM.
Under `Cc1cc2n(n1)CCCN2C(=O)CCC(=O)Nc1cc(-c2ccccc2C)no1` [Compound 12, 4-(2-methyl-6,7-dihydropyrazolo[1,5-a]pyrimidin-4(5H)-yl)-4-oxo-N-(3-(o-tolyl)isoxazol-5-yl)butanamide] stands less than 100 nM.
To `Cc1cc2n(n1)CCCN2C(=O)CCC(=O)Nc1ccc(-c2cncc(C(F)(F)F)c2)nn1` [Compound 105, 4-(2-methyl-6,7-dihydropyrazolo[1,5-a]pyrimidin-4(5H)-yl)-4-oxo-N-(6-(5-(trifluoromethyl)pyridin-3-yl)pyridazin-3-yl)butanamide] belongs less than 100 nM; to `Cc1cc2n(n1)CCCN2C(=O)CCC(=O)Nc1cc(-c2ccccc2Cl)no1` [Compound 6, N-(3-(2-chlorophenyl)isoxazol-5-yl)-4-(2-methyl-6,7-dihydropyrazolo[1,5-a]pyrimidin-4(5H)-yl)-4-oxobutanamide], greater than 10000 nM; to `Cc1cc2n(n1)CC(C)CN2C(=O)CCC(=O)Nc1ccc(-c2ccccn2)cn1` (stereo not drawn) [Compound 171, N-([2,3′-bipyridin]-6′-yl)-4-(2,6-dimethyl-6,7-dihydropyrazolo[1,5-a]pyrimidin-4(5H)-yl)-4-oxobutanamide], less than 100 nM.
For the compound `Cc1cncc(-c2ccc(NC(=O)CCC(=O)N3CC(C)Cn4nc(C)cc43)cn2)c1` (stereo not drawn) [Compound 144, 4-(2,6-dimethyl-6,7-dihydropyrazolo[1,5-a]pyrimidin-4(5H)-yl)-N-(5′-methyl-[2,3′-bipyridin]-5-yl)-4-oxobutanamide], the 50% inhibitory concentration (IC50) was less than 100 nM.
Take `Cc1cc2n(n1)CCCN2C(=O)CCC(=O)Nc1cnc(-c2cncc(F)c2)cn1` [Compound 122, N-(5-(5-fluoropyridin-3-yl)pyrazin-2-yl)-4-(2-methyl-6,7-dihydropyrazolo[1,5-a]pyrimidin-4(5H)-yl)-4-oxobutanamide]: the IC50 is less than 100 nM.
Under `Cc1cc2n(n1)CC(C)CN2C(=O)CCC(=O)Nc1ccc(-c2ccccc2)nn1` (stereo not drawn) [Compound 139, 4-(2,6-dimethyl-6,7-dihydropyrazolo[1,5-a]pyrimidin-4(5H)-yl)-4-oxo-N-(6-phenylpyridazin-3-yl)butanamide] stands less than 100 nM.
To `Cc1cc2n(n1)CC(C)CN2C(=O)CCC(=O)Nc1cc(F)c(-c2cccnc2)cn1` (stereo not drawn) [Compound 165, 4-(2,6-dimethyl-6,7-dihydropyrazolo[1,5-a]pyrimidin-4(5H)-yl)-N-(4-fluoro-[3,3′-bipyridin]-6-yl)-4-oxobutanamide] belongs less than 100 nM; to `Cc1cc2n(n1)CCCN2C(=O)CCC(=O)Nc1cc(-c2cccc(Cl)c2)no1` [Compound 3, N-(3-(3-chlorophenyl)isoxazol-5-yl)-4-(2-methyl-6,7-dihydropyrazolo[1,5-a]pyrimidin-4(5H)-yl)-4-oxobutanamide], less than 100 nM.
To `Cc1ccnc(-c2ccc(NC(=O)CCC(=O)N3CCCn4nc(C)cc43)nc2)c1` [Compound 148, N-(4-methyl-2,3′-bipyridin-6′-yl)-4-(2-methyl-6,7-dihydropyrazolo[1,5-a]pyrimidin-4(5H)-yl)-4-oxobutanamide] belongs less than 100 nM; to `Cc1cccc(-c2cc(NC(=O)CCC(=O)N3CCCn4nc(C)cc43)on2)c1` [Compound 11, 4-{2-methyl-5H,6H,7H-pyrazolo[1,5-a]pyrimidin-4-yl}-N-[3-(3-methylphenyl)-1,2-oxazol-5-yl]-4-oxobutanamide], greater than 10000 nM.
For `Cc1cc2n(n1)C[C@H](C)CN2C(=O)CCC(=O)Nc1ccc(-c2cccnc2)cn1` [Compound 170, N-(3,3′-bipyridin-6-yl)-4-(2,6-dimethyl-6,7-dihydropyrazolo[1,5-a]pyrimidin-4(5H)-yl)-4-oxobutanamide], the IC50 is less than 100 nM.
Under `Cc1cc2n(n1)CCCN2C(=O)CCC(=O)Nc1cc(-c2cccnc2)no1` [Compound 19, 4-(2-methyl-6,7-dihydropyrazolo[1,5-a]pyrimidin-4(5H)-yl)-4-oxo-N-(3-(pyridin-3-yl)isoxazol-5-yl)butanamide] stands greater than 10000 nM; under `Cc1cc2n(n1)CCCN2C(=O)CCC(=O)Nc1ccc(-c2ccnn2C)cc1` [Compound 29, N-(4-(1-methyl-1H-pyrazol-5-yl)phenyl)-4-(2-methyl-6,7-dihydropyrazolo[1,5-a]pyrimidin-4(5H)-yl)-4-oxobutanamide], less than 1000 nM.
